From patent publication US20180118707A1, “BETA-NAPHTHOISOFLAVONES, COMPOSITIONS CONTAINING, AND USES OF, SAME” (Thesan Pharmaceuticals, Inc., priority 2015, published 2018)

Target: T1, Aryl Hydrocarbon Receptor (Homo sapiens, UniProt P35869)
T1 construct: endogenous in cells; host or cells: Normal human keratinocytes (NHK) transduced with the lentivector plox-XRE TATA-Luc (reporter only)
T1 sequence (P35869 11-848): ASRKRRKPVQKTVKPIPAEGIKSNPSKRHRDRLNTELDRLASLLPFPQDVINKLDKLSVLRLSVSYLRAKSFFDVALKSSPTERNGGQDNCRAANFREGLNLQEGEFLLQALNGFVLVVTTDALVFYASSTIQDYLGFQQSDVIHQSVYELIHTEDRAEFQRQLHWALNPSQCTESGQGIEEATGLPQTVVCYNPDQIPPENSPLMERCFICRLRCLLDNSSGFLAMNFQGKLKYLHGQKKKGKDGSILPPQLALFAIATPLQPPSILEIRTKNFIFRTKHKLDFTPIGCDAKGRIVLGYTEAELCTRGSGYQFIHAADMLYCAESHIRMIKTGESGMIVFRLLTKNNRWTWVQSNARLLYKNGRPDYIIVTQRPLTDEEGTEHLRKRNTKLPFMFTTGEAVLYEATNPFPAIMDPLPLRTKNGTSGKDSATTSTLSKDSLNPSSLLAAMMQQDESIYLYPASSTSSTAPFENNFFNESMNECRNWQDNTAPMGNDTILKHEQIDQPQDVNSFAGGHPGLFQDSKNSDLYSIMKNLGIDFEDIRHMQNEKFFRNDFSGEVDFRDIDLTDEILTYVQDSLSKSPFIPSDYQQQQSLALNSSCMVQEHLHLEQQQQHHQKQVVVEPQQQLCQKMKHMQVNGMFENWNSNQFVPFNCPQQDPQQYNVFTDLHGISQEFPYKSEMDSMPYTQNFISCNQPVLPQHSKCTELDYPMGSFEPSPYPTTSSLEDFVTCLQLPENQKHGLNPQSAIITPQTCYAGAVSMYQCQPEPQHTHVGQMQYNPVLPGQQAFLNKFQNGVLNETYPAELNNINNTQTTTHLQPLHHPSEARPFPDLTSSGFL
Experiment: AhR activation luciferase reporter in Hep G2-plox-XRE TATA-Luc cells
Type: cell-based
Conditions: treatment for 24 h with 1-10 uM
Description: AhR activation is measured in HEP G2 cells (hepatocytes, Hep G2 is a human liver carcinoma cell line) stably transfected with the lentivector plox-XRE TATA-Luc. The Hep G2 cells are cultured in a growing media consisting of DM EM (Glbco)+10% fetal bovine serum+penicillin+streptomycin. At D0, the Hep G2 cells are seeded into 12-well plates in proportions of approximately 30,000 cells/cm^2. After 24 h, the medium is replaced with fresh medium and the cells are transduced with the lentivector plox-XRE TATA-Luc. After 48 h, the cells are subcultured and maintained in culture, and tested for their reactivity to 3-phenyl-1H-benzo[f]chromen-1-one. The tests are carried out using the luciferase reporter assay system kit from Promega. At D0, the cells are seeded at a density of approximately 60% confluence, and then treated, at D1, with the test substance diluted to various concentrations in the appropriate culture medium. At D2, the cells are lysed in CLB buffer, and the lysate is clarified by centrifugation for 5 min at 10 000 g. The luciferase activity is measured in 20 microliters of lysate as recommended by the supplier, using the luminoskan luminometer (Thermo). […] Data is processed and ECso's can be calculated from standard data monitoring software.

O=c1cc(-c2ccccc2)oc2ccc3ccccc3c12 [D, 3-Phenyl-1H-benzo[f]chromen-1-one, reference compound]
induction of the luciferase activity: significant induction
